Earlier results as cited in patent US7670624B2, “Gastrointestinal-specific multiple drug release system” (Astella Pharma Inc., priority 2004, dated 2010).
Where a name gives a salt, the structure may show the parent alone.

Details: in vivo

Row | Compound | t1/2 [h]
1 | NC(N)=Nc1nc(CSCCC(N)=NS(N)(=O)=O)cs1 [Famotidine] | 3
2 | CN(C)c1ccc(O)c2c1C[C@H]1C[C@H]3[C@H](N(C)C)C(O)=C(C(N)=O)C(=O)[C@@]3(O)C(O)=C1C2=O [Minocycline hydrochloride] | 9.5
